Holding throughout (type): cell-based, male wister rats
Test [1] relates to fat cells. Put plainly: Decomposition of the fat in the fat cell by ACTH. The settings on record: 37° C., two hours; for inhibition at 20 µg/mL: Rattus norvegicus, 2 h, read-out: Rate of inhibition. On the procedure: (§1) Fat tissues were separated from the epididymides of male wister rats weighing 150 to 180 g each, and fat cells were obtained therefrom in accordance with the Rodbell's method [M. Rodbell, J. Biol. Chem., 239, 375 (1964)]. A small section was prepared from 4 g of the fat tissue, and placed in 10 ml. of Krebs-Ringer bicarbonate buffer containing 0.4 g of albumin, 10 mg of collagenase and 5 mg of glucose, and having a pH value of 7.4. It was heated at 37° C. for 50 minutes, and subjected to centrifugal separation at 300 rpm, whereby a floating fat cell layer was separated. Added into the fat cell were 10 ml. of the aforesaid buffer (pH 7.4), and the solution was carefully stirred to wash the fat cell, followed by centrifugal separation at 300 rpm for 30 seconds. This procedure was repeated twice, whereby the fat cells were washed perfectly, and these fat cells were used for the tests.
The fat cells obtained by treating with collagenase were suspended in Krebs-Ringer bicarbonate buffer (KRB) having a pH value of 7.4. Placed into a test tube were 0.3 ml. of the solution thus obtained (containing 100 mg of fat cells), 0.1 ml. of ACTH solution containing 1 μg of ACTH, 0.1 ml. of each saponin solution containing 500 μg of saponin, and 0.3 ml. of a 5% alubumin solution in KRB, and having a pH value adjusted to 7.4. They were heated at 37° C. for two hours, and the amount of the resulting free fatty acid was determined in accordance with the Dole's method [V. P. Dole, J. Biol. Chem., 35, 150 (1958)].
Namely, 3 ml. of Dole's extract were separated into the reaction system, and 1 ml. of a thymol blue solution was added thereinto. Nitrogen was blown into the resulting solution, and the solution was titrated with a 0.008 N aqueous solution of sodium hydroxide, while it was being stirred. The amount of the resulting free fatty acid was determined in accordance with a calibration curve.
The rate of inhibition against fat decomposition was obtained in accordance with the following equation: [formula] wherein A stands for the amount of the free fatty acid formed by addition of ACTH along in the amount of 1 μg/ml.; and B stands for the amount of the free fatty acid formed by addition of ACTH and saponin in the amount of 1 μg/ml. and 20 μg/ml., respectively.

In test [2] the test system is fat cells. Put plainly: Decomposition by adrenalin of the fat in the fat cells. The settings on record: adrenalin 1 μg/ml + saponin 20 μg/ml, 37° C., two hours; for inhibition at 20 µg/mL: Rattus norvegicus, 2 h, read-out: Rate of inhibition. The method, then: A small section was prepared from 4 g of the fat tissue, and placed in 10 ml. of Krebs-Ringer bicarbonate buffer containing 0.4 g of albumin, 10 mg of collagenase and 5 mg of glucose, and having a pH value of 7.4. […] Added into the fat cell were 10 ml. of the aforesaid buffer (pH 7.4), and the solution was carefully stirred to wash the fat cell, followed by centrifugal separation at 300 rpm for 30 seconds. This procedure was repeated twice, whereby the fat cells were washed perfectly, and these fat cells were used for the tests.
The fat cells obtained by treating with collagenase were suspended in Krebs-Ringer phosphate buffer (KRP) having a pH value of 7.4. Placed into a test tube were 0.3 ml. of the solution thus obtained, and containing 100 mg of fat cells, 0.1 ml. of an adrenalin solution containing 1 μg of adrenalin, 0.1 ml. of a saponin solution containing 20 μg of saponin, and 0.5 ml. of a 5% albumin solution in KRP, and having a pH value adjusted to 7.4. […] More specifically, 3 ml. of Dole's extract were placed in the reaction system, and after they were shaked for five minutes, 3 ml. of heptane were dispensed, and 1 ml. of a thymol blue solution was added thereinto. The resulting solution was titrated with a 0.008 N aqueous solution of sodium hydroxide, while it was being stirred with nitrogen, and the amount of the resulting free fatty acid was determined in accordance with a calibration curve.
The rate of inhibition was obtained in accordance with the equation shown at (1) above.

Test [3] relates to fat cells. In words: Synthesis of fat from glucose in fat cells. The settings on record: 20 μg/ml; for Power for synthesis of neutral fat from glucose: 37° C., half an hour; for Rate of promotion / activation at 20 µg/mL: none = 100; for activation at 20 µg/mL: Rattus norvegicus, 0.5 h, read-out: Rate of promotion. The method, then: as §1
^14 C-glucose having its carbon atoms marked with radioactivity was reacted upon fat cells, and a Geiger count was read to determine the amount of the glucose participating in the fat synthesis and incorporated into the fat cells as a neutral fat, whereby gynosaponins were tested for their effects on the power of the glucose for fat synthesis.
More specifically, the fat cells obtained by treating with collagenase were suspended in KRB, and 0.35 ml. of the resulting solution containing 100 mg of fat cells was placed into a test tube with 0.1 ml. of each saponin solution containing 20 μg of saponin, 0.5 ml. of a 5% albumin solution in KRB, containing 10 mM glucose and having a pH value of 7.4, and 0.05 ml. of a ^14 C-glucose solution which was a 0.5 μCi KRP solution having a pH value of 7.4 and containing 10 mM glucose. They were heated at 37° C. for half an hour, and after 5 ml. of Dole's extract were added and the whole was shaked for five minutes, 3 ml. of heptane and 2 ml. of water were added, and the whole was shaked for five minutes. 3 ml. of a heptane layer were separated, and after an alkaline ethanol solution (0.5 N sodium hydroxide solution, 50 % ethanol solution) was added in the amount of 3 ml., the whole was shaked for five minutes. Then, 1 ml. of an ethanol layer was separated, and 10 ml. of a toluene scintillation solution were added thereinto, followed by determination according to the method of Skipski et al. [Biochem. Biophys. Acta, 106, 386 (1965)].

Where [4] appears, read: ACTH 1 μg/ml + saponin 20 μg/ml.

For “20S-Protopanaxadiol-3-O-{[β-D-glucopyranosyl (1→2)-α-L-rhamnopyranosyl (1→6)]-β-D-glucopyranoside} [progynosapogenin A--AH]”, in the test with fat cells [1] (setting [4]), the “Free fatty acid formed by decomposition of fat” value (from here on “Free fatty acid formed”) was 6.3 μ Eq/g and the Rate of inhibition came to 25%. Also, in the test with fat cells [2], the “Free fatty acid formed” value was found to be 12.4 μ Eq/g and the Rate of inhibition worked out at 12%. Further, in the test on fat cells [3], the “Power for synthesis of neutral fat from glucose” value (“Power for synthesis” for short) was 10,550 cpm/g and the Rate of promotion amounted to 49%.

Consider `CC(C)=CCC[C@](C)(O[C@@H]1O[C@H](CO[C@@H]2OC[C@@H](O)[C@H](O)[C@H]2O)[C@@H](O)[C@H](O)[C@H]1O)[C@H]1CC[C@]2(C)[C@@H]1[C@H](O)C[C@@H]1[C@@]3(C)CC[C@H](O)C(C)(C)[C@@H]3CC[C@]12C` [gynosaponin M, 20S-Protopanaxadiol-20-O-[β-D-xylopyranosyl (1→6)-β-D-glucopyranoside]], for which, in the test with fat cells [1] (setting [4]), the “Free fatty acid formed” value came out at 6.4 μ Eq/g and the inhibition at 20 µg/mL came out at 24%. Besides, in the test with fat cells [2], the inhibition at 20 µg/mL is 4% and the “Free fatty acid formed” value was determined as 13.5 μ Eq/g. Further, in the test with fat cells [3], the “Power for synthesis” value is given as 12,650 cpm/g and the activation at 20 µg/mL worked out at 59%.

`CC(C)=CCC[C@](C)(O[C@@H]1O[C@H](CO[C@@H]2O[C@H](CO)[C@@H](O)[C@H](O)[C@H]2O)[C@@H](O)[C@H](O)[C@H]1O)[C@H]1CC[C@]2(C)[C@@H]1[C@H](O)C[C@@H]1[C@@]3(C)CC[C@H](O[C@@H]4O[C@H](CO[C@@H]5O[C@@H](C)[C@H](O)[C@@H](O)[C@H]5O)[C@@H](O)[C@H](O)[C@H]4O)C(C)(C)[C@@H]3CC[C@]12C` [progynosapogenin A2, 20S-Protopanaxadiol-3-O-[α-L-rhamnopyranosyl (1→6)-β-D-glucopyranoside]-20-O-[β-D-glucopyranosyl (1→6)-β-D-glucopyranoside]]: in the test on fat cells [1] (setting [4]), the “Free fatty acid formed” value stood at 6.2 μ Eq/g and the inhibition at 20 µg/mL was 26%. In the test with fat cells [2], the inhibition at 20 µg/mL was found to be 8% and the “Free fatty acid formed” value stood at 13.0 μ Eq/g. In addition, in the test with fat cells [3], the “Power for synthesis” value was 12,650 cpm/g and the activation at 20 µg/mL turned out to be 59%.

As to `CC(C)=CCC[C@](C)(O[C@@H]1O[C@H](CO[C@@H]2OC[C@@H](O)[C@H](O)[C@H]2O)[C@@H](O)[C@H](O)[C@H]1O)[C@H]1CC[C@]2(C)[C@@H]1[C@H](O)C[C@@H]1[C@@]3(C)CC[C@H](O[C@@H]4O[C@H](CO)[C@@H](O)[C@H](O)[C@H]4O)C(C)(C)[C@@H]3CC[C@]12C` [gynosaponin I, 20S-Protopanaxadiol-3-O-β-D-glucopyranoside-20-O-[β-D-xylopyranosyl (1→6)-β-D-glucopyranoside]], in the test with fat cells [1] (setting [4]), the “Free fatty acid formed” value is listed as 6.6 μ Eq/g and the inhibition at 20 µg/mL was 21%. For the same compound, in the test with fat cells [2], the inhibition at 20 µg/mL was 10% and the “Free fatty acid formed” value is reported as 12.7 μ Eq/g. In the test on fat cells [3], the “Power for synthesis” value is recorded as 10,564 cpm/g and the activation at 20 µg/mL is 49%.

Consider `CC(C)=CCC[C@](C)(O[C@@H]1O[C@H](CO[C@@H]2O[C@@H](C)[C@H](O)[C@@H](O)[C@H]2O)[C@@H](O)[C@H](O)[C@H]1O)[C@H]1CC[C@]2(C)[C@@H]1[C@H](O)C[C@@H]1[C@@]3(C)CC[C@H](O[C@@H]4O[C@H](CO[C@@H]5O[C@@H](C)[C@H](O)[C@@H](O)[C@H]5O)[C@@H](O)[C@H](O)[C@H]4O)C(C)(C)[C@@H]3CC[C@]12C` [gynosaponin G, 20S-Protopanaxadiol-3,20-bis-O-[α-L-rhamnopyranosyl (1→6)-β-D-glucopyranoside]], for which, in the test with fat cells [1] (setting [4]), the “Free fatty acid formed” value is 5.8 μ Eq/g and the inhibition at 20 µg/mL came out at 31%. For the same compound, in the test on fat cells [2], the inhibition at 20 µg/mL was 2% and the “Free fatty acid formed” value is recorded as 13.8 μ Eq/g. In the test with fat cells [3], the “Power for synthesis” value was 8,925 cpm/g and the activation at 20 µg/mL was 42%.

On to `CC(=CCC[C@](C)(O[C@@H]1O[C@H](CO[C@@H]2OC[C@@H](O)[C@H](O)[C@H]2O)[C@@H](O)[C@H](O)[C@H]1O)[C@H]1CC[C@]2(C)[C@@H]1[C@H](O)C[C@@H]1[C@@]3(C)CC[C@H](O)C(C)(C)[C@@H]3CC[C@]12C)CO` [gynosaponin U, 20S,26-Hydroxyprotopanaxadiol-20-O-[β-D-xylopyranosyl (1→6)-β-D-glucopyranoside]], for which, in the test with fat cells [1] (setting [4]), the “Free fatty acid formed” value is reported as 5.6 μ Eq/g and the inhibition at 20 µg/mL was determined as 33%. Besides, in the test with fat cells [2], the inhibition at 20 µg/mL is 2% and the “Free fatty acid formed” value was 13.8 μ Eq/g. In addition, in the test with fat cells [3], the “Power for synthesis” value was 13,100 cpm/g and the activation at 20 µg/mL came out at 61%.

“20S,26-Hydroxyprotopanaxadiol-3-O-{[β-D-glucopyranosyl (1→2)-α-L-rhamnopyranosyl (1→6)]-β-D-glucopyranoside}-20-O-[β-D-glucopyranosyl (1→6)-β-D-glucopyranoside] [gynosaponin T]”: in the test with fat cells [1] (setting [4]), the “Free fatty acid formed” value was 6.3 μ Eq/g and the Rate of inhibition is 25%. In addition, in the test on fat cells [2], the “Free fatty acid formed” value was 13.1 μ Eq/g and the Rate of inhibition is given as 7%. In the test with fat cells [3], the “Power for synthesis” value is recorded as 11,150 cpm/g and the Rate of promotion was 52%.

For “20S-Protopanaxadiol-3-O-{[β-D-glucopyranosyl (1→2)-α-L-rhamnopyranosyl (1→6)]-β-D-glucopyranoside}-20-O-β-D-glucopyranoside [gynosaponin F]”, in the test on fat cells [1] (setting [4]), the “Free fatty acid formed” value turned out to be 6.3 μ Eq/g and the Rate of inhibition came to 25%. For the same compound, in the test on fat cells [2], the “Free fatty acid formed” value is recorded as 13.4 μ Eq/g and the Rate of inhibition worked out at 5%. In the test on fat cells [3], the “Power for synthesis” value is reported as 11,620 cpm/g and the Rate of promotion was 54%.

As to “ACTH: ACTH, used at 1 μg/ml to decompose fat in fat cells (SYSMEHFRWGKPVGKKRRPVKVYPNGAEDESAEAFPLEF; Corticotropin; UniProt P01189 138-176, looked up) [reference compound]”, in the test on fat cells [1] (ACTH alone, 1 μg/ml), the “Free fatty acid formed” value is recorded as 8.4 μ Eq/g.

The record behind these values is patent US4339442A, “Gynosaponins, their use and a process for preparing the same” (priority 1980, dated 1982).
